Measured values as given in patent US20200048668A1, “BIOLOGICAL PRODUCTION OF ß-LACTONES” (Regents of the University of Minnesota, priority 2018, published 2020).

Key:
[1] = target: ClpP protease of Mycobacterium tuberculosis (Mycobacterium tuberculosis, UniProt P9WPC3+P9WPC5); conditions: cited from earlier work
Xc OleB = Xc OleB (Xanthomonas campestris pv. campestris, UniProt Q8PDW8); assay: OleB reactions with haloalkanes (GC-FID/MS); assay type: biochemical; conditions: monitored by GC-FID/MS
Protocol: The following haloalkane substrates were dissolved in ethanol to a concentration of 5 mM for testing with Xc OleB: 1-iodobutane, 1,3-diiodobutane,1-chlorobutane, 1-bramopentane, 1-chlorohexane, 1-bromooctane, 1-iodoundecane, and 7-(bromomethyl)pentadecane. Reactions were carried out in glass GC vials contained purified OleB (40 μg) and 10 μL of substrate in 500 μL, of 200 mM NaCl, 20 mM NaPO4 at pH 7.4. Reactions were incubated at room temperature overnight, followed by extraction with tert-butyl methylether (MTBE). The MTBE extract was transferred to a clean GC vial and analyzed by gas chromatography/mass spectrometry (GC/MS Agilent 7890a & 5975c with an Agilent J&W bd-ms1 column 30 m length, 0.25 mm diameter, 0.25 μm film).

human 20S protease = human 20S protease (Homo sapiens, UniProt P28072+P28074+Q99436); conditions: cited from earlier work
human pancreatic lipase = human pancreatic lipase (Homo sapiens, UniProt P16233); conditions: cited from earlier work
X. campestris OleB = X. campestris OleB (Xanthomonas campestris pv. campestris, UniProt Q8PDW8); assay: OleB reactions with β-lactone followed by 1H-NMR; assay type: biochemical; conditions: for β-lactone that underwent decarboxylation to cis-olefin: 1.0 mg OleB, overnight, room temperature, 1H-NMR
OleB = OleB (Xanthomonas campestris pv. campestris, UniProt Q8PDW8); assay: MALDI-TOF of acyl-enzyme intermediate with haloalkane; assay type: binding; conditions: wild type OleB
Protocol: To identify an acyl-enzyme intermediate, Matrix Assisted Laser Desorption Ionization (MALDI) was carried out on wild type OleB and OleBD114A proteins that had been reacted with 7-(bromornethyl)pentadecane (TCI). These two substrates contain the reactive bromomethyl group in the middle of a long alkyl chain, thereby mimicking the β-lactone substrate of OleB. Reactions contained 500 μM substrate and 40 μg of OleB in 100 μL of buffer (20 mM NaCl, 5 mM NaPO4, pH 7.4). Reaction were prepared for MALDI using standard C4 ZipTip (Millipore) procedures and spotted on a plate with sinapinic acid. Samples were analyzed on a Bruker Autoflex Speed MALDI-TOF.

pancreatic lipase = target: T1, pancreatic lipase (Homo sapiens, UniProt P16233); assay: Lipase inhibition by β-lactones in microtiter well plates; assay type: biochemical; conditions: FIGS. 13A-E
T1 sequence (P16233 17-465): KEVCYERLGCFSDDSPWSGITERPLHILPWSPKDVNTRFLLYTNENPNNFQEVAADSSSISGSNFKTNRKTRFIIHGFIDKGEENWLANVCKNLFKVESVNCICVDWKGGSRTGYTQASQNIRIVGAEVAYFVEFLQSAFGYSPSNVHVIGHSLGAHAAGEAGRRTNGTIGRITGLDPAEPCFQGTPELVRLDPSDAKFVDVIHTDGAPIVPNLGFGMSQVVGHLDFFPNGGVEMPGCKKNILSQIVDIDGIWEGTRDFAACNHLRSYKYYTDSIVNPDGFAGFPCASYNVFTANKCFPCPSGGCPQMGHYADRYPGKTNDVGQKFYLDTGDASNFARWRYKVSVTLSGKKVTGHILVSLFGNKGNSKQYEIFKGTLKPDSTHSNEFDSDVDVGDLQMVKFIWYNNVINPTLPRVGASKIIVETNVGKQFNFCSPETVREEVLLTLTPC
Protocol: Cis and trans-isomers of β-lactones were synthesized and tested separately. […] These reactions were conducted in microtiter well plates so the inhibition of the lipase can be measured in a high-throughput manner such that hundreds or thousands of β-lactones can be rapidly screened. In addition, fatty acyl-CoA substrates can be combined with OleADC and lipase and lipase inhibition can be detected. Moreover, lipase may be substituted with proteasomes, penicillin binding proteins, pathogenic bacteria, or cancer cells and inhibitory activity of one or a plurality of β-lactones detected.

Chain of Xc OleB (Q8PDW8 whole entry): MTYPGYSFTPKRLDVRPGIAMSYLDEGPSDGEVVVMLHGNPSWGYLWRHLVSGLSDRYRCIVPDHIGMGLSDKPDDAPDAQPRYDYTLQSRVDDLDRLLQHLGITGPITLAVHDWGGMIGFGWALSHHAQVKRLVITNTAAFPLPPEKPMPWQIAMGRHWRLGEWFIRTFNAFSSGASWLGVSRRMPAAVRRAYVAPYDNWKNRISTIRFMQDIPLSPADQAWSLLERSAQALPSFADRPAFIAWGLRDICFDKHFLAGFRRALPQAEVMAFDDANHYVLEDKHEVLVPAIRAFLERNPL
Chain of X. campestris OleB (Q8PDW8 whole entry): as above
Chain of OleB (Q8PDW8 whole entry): as above
Chain of ClpP protease of Mycobacterium tuberculosis (P9WPC5 whole entry): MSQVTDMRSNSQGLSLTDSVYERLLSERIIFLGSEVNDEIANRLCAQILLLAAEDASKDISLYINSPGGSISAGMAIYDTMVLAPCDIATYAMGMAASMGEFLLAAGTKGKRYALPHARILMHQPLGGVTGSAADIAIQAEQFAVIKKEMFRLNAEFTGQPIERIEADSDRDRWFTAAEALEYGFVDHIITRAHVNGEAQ
Chain of ClpP protease of Mycobacterium tuberculosis (P9WPC3 whole entry): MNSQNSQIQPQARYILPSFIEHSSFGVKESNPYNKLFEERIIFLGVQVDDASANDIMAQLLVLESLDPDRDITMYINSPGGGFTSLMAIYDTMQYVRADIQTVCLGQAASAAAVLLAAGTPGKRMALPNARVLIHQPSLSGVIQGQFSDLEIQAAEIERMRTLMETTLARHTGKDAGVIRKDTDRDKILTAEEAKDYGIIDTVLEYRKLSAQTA

## CCCC1OC(=O)C1Cc1ccccc1 (stereo not shown) [3-benzyl, 4-propyl oxetanone]
[1]
  inhibition of ClpP protease: inhibit the ClpP protease of Mycobacterium tuberculosis

## CCCCCCCl [1-cholohexane]
Xc OleB
  dehalogenase activity towards haloalkane substrate: No detectable activity

## CCCCBr [1-bromobutane]
Xc OleB
  dehalogenase activity towards haloalkane substrate: No detectable activity

## CCCCI [1-iodobutane]
Xc OleB
  dehalogenase activity towards haloalkane substrate: No detectable activity

## salinosporamide
Human 20S protease
  inhibition of human 20S protease function: inhibit human 20S protease function

## CCCCC/C=C\C/C=C\C[C@@H](C[C@@H]1OC(=O)[C@H]1CCCCCC)OC(=O)[C@H](CC(C)C)NC=O [lipstatin]
Human pancreatic lipase
  inhibition of human pancreatic lipase: inhibiting human pancreatic lipase

## CCCCCCCCCC1OC(=O)C1CCCCCCCC (stereo not drawn) [cis-β-lactone, 3-octyl-4-nonyl-2-oxetanone]
X. campestris OleB
  β-lactone that underwent decarboxylation to cis-olefin: 47%
X. campestris OleB; 2 mg of OleB
  cis-β-lactone starting material converted to cis-olefin: 54%
X. campestris OleB; 4 mg of OleB
  cis-β-lactone starting material converted to cis-olefin: 63%

## CCCCCCCCC(CBr)CCCCCC (stereo not shown) [7-(bromomethyl)pentadecane]
OleB
  acyl-enzyme intermediate formation (mass shift): forms a stable acyl-enzyme intermediate
Xc OleB
  dehalogenase activity towards haloalkane substrate: No detectable activity

## CCCCCCCCCCC[C@@H](C[C@@H]1OC(=O)[C@H]1CCCCCC)OC(=O)[C@H](CC(C)C)NC=O [Orlistat, tetrahydrolipstatin]
Pancreatic lipase
  lipase inhibitory activity: inhibits pancreatic lipase at nanogram levels

## CCCCCCCCCC1OC(=O)C1CCCCCCCC (stereo not drawn) [trans-β-lactone, 3-octyl-4-nonyl-2-oxetanone]
X. campestris OleB
  β-lactone that underwent decarboxylation to cis-olefin: 4%

## CCCCCCBr [1-bromohexane]
Xc OleB
  dehalogenase activity towards haloalkane substrate: No detectable activity

## CCCCCCCCCCCI [1-iodoundecane]
Xc OleB
  dehalogenase activity towards haloalkane substrate: No detectable activity

## CCCCCl [1-chlorobutane]
Xc OleB
  dehalogenase activity towards haloalkane substrate: No detectable activity
